The target in this experiment is T1, Cbl-b (Homo sapiens, UniProt Q13191).
T1 construct: biotin (biotinylated protein)
Description: Cbl-b probe displacement HTRF binding assay. Conditions: 0.4 nM Cbl-b, 150 nM BODIPY probe. On the procedure: The affinity with which compounds of the present disclosure bind to Cbl-b was assessed using probe displacement homologous time resolved fluorescence (HTRF) assays. The assays used a BODIPY™ conjugated probe (Example 54 from WO 2020264398) and biotinylated Cbl-b. The assays were performed in assay buffer consisting of 20 mM Hepes, 150 mM NaCl, 0.01% Triton X-100, 0.5 mM TCEP, 0.01% BSA. On the day of the assay, a 20 point, 1:2 master serial dilution of each compound was prepared in DMSO to span a final concentration range of […] to 0 nM. Two hundred nanoliters of diluted compound was added to each well of a 384-well plate. Fifteen microliters of biotinylated- Cbl-b resuspended in assay buffer were added to each well and the plate incubated for 60 minutes at room temperature prior to addition of 5 μL of BODIPY™ probe in assay buffer. Final assay conditions included 0.4 nM of Cbl-b and 150 nM of BODIPY™ probe. After a further 15 minutes of incubation at room temperature, 5 μl of Streptavidin-Terbium cryptate reagent at 5-fold final concentration was added to each well of the 384-well plate. Binding of a probe to Cbl-b results in an increase of HTRF signal. HTRF signal was measured by Envision plate reader, while competition of a compound of the present disclosure with probe results in a decrease of signal. Percentage maximum activity in each test well was calculated based on DMSO (maximum activity, 0% displacement) and no protein control wells (baseline activity, 100% displacement). Binding affinity was determined from a dose response curve fitted using a standard four parameter fit equation. See Table 7 for data for compounds (Cbl-b Binding (IC50)).
On the technique in general: TR-FRET usually uses a lanthanide donor and a delayed reading to cut background.

T1 sequence (Q13191 whole entry, species assumed): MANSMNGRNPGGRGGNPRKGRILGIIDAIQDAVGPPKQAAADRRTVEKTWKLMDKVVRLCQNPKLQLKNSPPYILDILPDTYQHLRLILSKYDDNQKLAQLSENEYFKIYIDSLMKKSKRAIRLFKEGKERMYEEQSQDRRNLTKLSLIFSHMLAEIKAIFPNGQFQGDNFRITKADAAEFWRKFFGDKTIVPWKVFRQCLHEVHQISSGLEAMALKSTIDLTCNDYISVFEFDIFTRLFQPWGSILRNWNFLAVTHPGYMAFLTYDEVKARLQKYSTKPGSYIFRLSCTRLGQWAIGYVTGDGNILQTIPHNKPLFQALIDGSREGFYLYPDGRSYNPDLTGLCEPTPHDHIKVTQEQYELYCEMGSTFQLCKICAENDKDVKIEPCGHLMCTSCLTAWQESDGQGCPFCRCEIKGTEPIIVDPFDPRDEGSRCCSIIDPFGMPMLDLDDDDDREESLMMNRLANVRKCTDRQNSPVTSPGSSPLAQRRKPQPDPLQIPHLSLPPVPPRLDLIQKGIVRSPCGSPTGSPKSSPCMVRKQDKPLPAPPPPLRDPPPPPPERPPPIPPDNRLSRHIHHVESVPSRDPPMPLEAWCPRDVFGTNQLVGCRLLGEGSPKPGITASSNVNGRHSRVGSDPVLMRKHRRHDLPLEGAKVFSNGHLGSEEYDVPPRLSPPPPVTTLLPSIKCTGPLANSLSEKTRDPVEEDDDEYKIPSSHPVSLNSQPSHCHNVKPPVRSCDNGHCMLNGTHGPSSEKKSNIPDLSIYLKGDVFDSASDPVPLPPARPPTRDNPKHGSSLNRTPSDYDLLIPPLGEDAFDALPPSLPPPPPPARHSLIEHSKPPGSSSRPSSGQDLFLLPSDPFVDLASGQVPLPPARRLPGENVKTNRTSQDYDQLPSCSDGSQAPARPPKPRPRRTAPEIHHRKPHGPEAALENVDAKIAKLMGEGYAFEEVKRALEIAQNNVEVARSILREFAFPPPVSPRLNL

The term IC50 denotes the concentration that inhibits the measured activity by half. A low value points to greater potency. On to `CO[C@@H](C)CNCc1cc(C(=O)Nc2cc(-c3ccc(F)cc3C(=O)N3CC(F)(F)C3)cc(OC(C)C)n2)c(=O)n(C2CC2)c1` [Example 137, N-(4-{2-[(3,3-difluoro-1-azetidinyl)carbonyl]-4-fluorophenyl}-6-isopropoxy-2-pyridyl)-1-cyclopropyl-5-{[(S)-2-methoxypropylamino]methyl}-2-oxo-1,2-dihydronicotinamide], for which the IC50 is less than 100 nM.

In the case of `CC(C)Oc1cc(-c2ccc(F)cc2C(=O)N2CC(F)(F)C2)cc(NC(=O)c2cc(CNC[C@@H]3CCCO3)cn(C3CC3)c2=O)n1` [Example 138, N-(4-{2-[(3,3-difluoro-1-azetidinyl)carbonyl]-4-fluorophenyl}-6-isopropoxy-2-pyridyl)-1-cyclopropyl-2-oxo-5-[({[(S)-perhydro-2-furyl]methyl}amino)methyl]-1,2-dihydronicotinamide], the IC50 was less than 100 nM.

Consider `CC(C)Oc1cc(-c2ccc(F)cc2C(=O)N2CC(F)(F)C2)cc(NC(=O)c2cc(CNCC3CC3)cn(C3CC3)c2=O)n1` [Example 139, N-(4-{2-[(3,3-difluoro-1-azetidinyl)carbonyl]-4-fluorophenyl}-6-isopropoxy-2-pyridyl)-1-cyclopropyl-5-{[(cyclopropylmethyl)amino]methyl}-2-oxo-1,2-dihydronicotinamide], for which the IC50 is less than 100 nM.

The molecule `CC(C)Oc1cc(-c2ccc(C#N)cc2C(=O)N2CC(F)(F)C2)cc(NC(=O)c2cc(CNCC3(F)CCC3)cn(C3CC3)c2=O)n1` [Example 141] came in with an IC50 of less than 100 nM.

On to `CO[C@@H](C)[C@H](C)NCc1cc(C(=O)Nc2cc(-c3ccc(C#N)cc3C(=O)N3CC(F)(F)C3)cc(OC(C)C)n2)c(=O)n(C2CC2)c1` [Example 142], for which the IC50 is less than 100 nM.

`CC(C)Oc1cc(-c2ccc(C#N)cc2C(=O)N2CC(F)(F)C2)cc(NC(=O)c2cc(CN[C@@H](C)C3CCC3)cn(C3CC3)c2=O)n1` [Example 143, N-(4-{4-cyano-2-[(3,3-difluoro-1-azetidinyl)carbonyl]phenyl}-6-isopropoxy-2-pyridyl)-5-{[(S)-1-cyclobutylethylamino]methyl}-1-cyclopropyl-2-oxo-1,2-dihydronicotinamide] showed an IC50 of less than 100 nM.

On to `O=C(Nc1cc(-c2c(F)cc(Cl)cc2C(=O)N2CC(F)(F)C2)cc(C2CC2)n1)c1cc(CNC[C@@H]2CCCO2)cn(C2CC2)c1=O` [Example 145, N-(4-{4-chloro-2-[(3,3-difluoro-1-azetidinyl)carbonyl]-6-fluorophenyl}-6-cyclopropyl-2-pyridyl)-1-cyclopropyl-2-oxo-5-[({[(S)-perhydro-2-furyl]methyl}amino)methyl]-1,2-dihydronicotinamide], for which the IC50 is less than 100 nM.

The molecule `O=C(Nc1cc(-c2c(F)cc(Cl)cc2C(=O)N2CC(F)(F)C2)cc(C2CC2)n1)c1cc(CNC[C@@H]2CCCCO2)cn(C2CC2)c1=O` [Example 146, N-(4-{4-chloro-2-[(3,3-difluoro-1-azetidinyl)carbonyl]-6-fluorophenyl}-6-cyclopropyl-2-pyridyl)-1-cyclopropyl-2-oxo-5-[({[(S)-tetrahydro-2H-pyran-2-yl]methyl}amino)methyl]-1,2-dihydronicotinamide] displayed an IC50 of less than 100 nM.

With `COCCNCc1cc(C(=O)Nc2cc(-c3c(F)cc(Cl)cc3C(=O)N3CC(F)(F)C3)cc(C3CC3)n2)c(=O)n(C2CC2)c1` [Example 147, N-(4-{4-chloro-2-[(3,3-difluoro-1-azetidinyl)carbonyl]-6-fluorophenyl}-6-cyclopropyl-2-pyridyl)-1-cyclopropyl-5-[(2-methoxyethylamino)methyl]-2-oxo-1,2-dihydronicotinamide], the IC50 was less than 100 nM.

`O=C(Nc1cc(-c2c(F)cc(Cl)cc2C(=O)N2CC(F)(F)C2)cc(C2CC2)n1)c1cc(CNCC2CC2)cn(C2CC2)c1=O` [Example 148, N-(4-{4-chloro-2-[(3,3-difluoro-1-azetidinyl)carbonyl]-6-fluorophenyl}-6-cyclopropyl-2-pyridyl)-1-cyclopropyl-5-{[(cyclopropylmethyl)amino]methyl}-2-oxo-1,2-dihydronicotinamide]: the IC50 is less than 100 nM.

For the molecule `CO[C@@H](C)CNCc1cc(C(=O)Nc2cc(-c3ccc(OC(F)F)cc3C(=O)N3CC(F)(F)C3)cc(Cl)n2)c(=O)n(C2CC2)c1` [Example 149, N-(6-chloro-4-{2-[(3,3-difluoro-1-azetidinyl)carbonyl]-4-difluoromethoxyphenyl}-2-pyridyl)-1-cyclopropyl-5-{[(S)-2-methoxypropylamino]methyl}-2-oxo-1,2-dihydronicotinamide], the IC50 was less than 100 nM.

For the molecule `COc1ccc(-c2cc(NC(=O)c3cc(CNC[C@H](C)OC)cn(C4CC4)c3=O)nc(C3CC3)c2)c(C(=O)N2CC(F)(F)C2)c1` [Example 150, N-(6-Cyclopropyl-4-{2-[(3,3-difluoro-1-azetidinyl)carbonyl]-4-methoxyphenyl}-2-pyridyl)-1-cyclopropyl-5-{[(S)-2-methoxypropylamino]methyl}-2-oxo-1,2-dihydronicotinamide], the IC50 was less than 100 nM.

Regarding `COc1ccc(-c2cc(NC(=O)c3cc(CNCC(C)C)cn(C4CC4)c3=O)nc(C3CC3)c2)c(C(=O)N2CC(F)(F)C2)c1` [Example 151, N-(6-Cyclopropyl-4-{2-[(3,3-difluoro-1-azetidinyl)carbonyl]-4-methoxyphenyl}-2-pyridyl)-1-cyclopropyl-5-[(isobutylamino)methyl]-2-oxo-1,2-dihydronicotinamide], the half-maximal inhibitory concentration (IC50) is less than 100 nM.

`COc1ccc(-c2cc(NC(=O)c3cc(CN[C@@H](C)[C@H](C)OC)cn(C4CC4)c3=O)nc(C3CC3)c2)c(C(=O)N2CC(F)(F)C2)c1` [Example 152, N-(6-Cyclopropyl-4-{2-[(3,3-difluoro-1-azetidinyl)carbonyl]-4-methoxyphenyl}-2-pyridyl)-1-cyclopropyl-5-{[(1S,2S)-2-methoxy-1-methylpropylamino]methyl}-2-oxo-1,2-dihydronicotinamide] came in with a half-maximal inhibitory concentration (IC50) of less than 100 nM.

As for `COc1ccc(-c2cc(NC(=O)c3cc(CNC[C@@H]4CCCO4)cn(C4CC4)c3=O)nc(C3CC3)c2)c(C(=O)N2CC(F)(F)C2)c1` [Example 153, N-(6-Cyclopropyl-4-{2-[(3,3-difluoro-1-azetidinyl)carbonyl]-4-methoxyphenyl}-2-pyridyl)-1-cyclopropyl-2-oxo-5-[({[(S)-perhydro-2-furyl]methyl}amino)methyl]-1,2-dihydronicotinamide], the IC50 is less than 100 nM.

In turn, `CO[C@@H](C)CNCc1cc(C(=O)Nc2cc(-c3ccc(Cl)cc3C(=O)N3CC(C#N)C3)cc(C3CC3)n2)c(=O)n(C2CC2)c1` [Example 155, N-(4-{4-Chloro-2-[(3-cyano-1-azetidinyl)carbonyl]phenyl}-6-cyclopropyl-2-pyridyl)-1-cyclopropyl-5-{[(S)-2-methoxypropylamino]methyl}-2-oxo-1,2-dihydronicotinamide] displayed an IC50 of less than 100 nM.

As for `CO[C@@H](C)CNCc1cc(C(=O)Nc2cc(-c3ccc(Cl)cc3C(=O)N3CCC3)cc(C3CC3)n2)c(=O)n(C2CC2)c1` [Example 156, N-(4-{2-[(1-Azetidinyl)carbonyl]-4-chlorophenyl}-6-cyclopropyl-2-pyridyl)-1-cyclopropyl-5-{[(S)-2-methoxypropylamino]methyl}-2-oxo-1,2-dihydronicotinamide], the IC50 is less than 100 nM.

`CO[C@@H](C)CNCc1cc(C(=O)Nc2cc(-c3ccc(Cl)cc3C(=O)N3CC(C(F)(F)F)C3)cc(C3CC3)n2)c(=O)n(C2CC2)c1` [Example 157, N-[4-(4-Chloro-2-{[3-(trifluoromethyl)-1-azetidinyl]carbonyl}phenyl)-6-cyclopropyl-2-pyridyl]-1-cyclopropyl-5-{[(S)-2-methoxypropylamino]methyl}-2-oxo-1,2-dihydronicotinamide] showed an IC50 of less than 100 nM.

With `CO[C@@H](C)CNCc1cc(C(=O)Nc2cc(-c3ccc(Cl)cc3C(=O)N3CC(C)(F)C3)cc(C3CC3)n2)c(=O)n(C2CC2)c1` [Example 158, N-(4-{4-Chloro-2-[(3-fluoro-3-methyl-1-azetidinyl)carbonyl]phenyl}-6-cyclopropyl-2-pyridyl)-1-cyclopropyl-5-{[(S)-2-methoxypropylamino]methyl}-2-oxo-1,2-dihydronicotinamide], the half-inhibitory concentration (IC50) was less than 100 nM.

Molecule `CO[C@@H](C)CNCc1cc(C(=O)Nc2cc(-c3ccc(Cl)cc3C(=O)N3CC(C)C3)cc(C3CC3)n2)c(=O)n(C2CC2)c1` [Example 159, N-(4-{4-Chloro-2-[(3-methyl-1-azetidinyl)carbonyl]phenyl}-6-cyclopropyl-2-pyridyl)-1-cyclopropyl-5-{[(S)-2-methoxypropylamino]methyl}-2-oxo-1,2-dihydronicotinamide] yielded an IC50 of less than 100 nM.

With `CO[C@@H](C)CNCc1cc(C(=O)Nc2cc(-c3ccc(Cl)cc3C(=O)N3CC4(COC4)C3)cc(C3CC3)n2)c(=O)n(C2CC2)c1` [Example 160, N-(4-{4-Chloro-2-[(2-oxa-6-aza-6-spiro[3.3]heptyl)carbonyl]phenyl}-6-cyclopropyl-2-pyridyl)-1-cyclopropyl-5-{[(S)-2-methoxypropylamino]methyl}-2-oxo-1,2-dihydronicotinamide], the half-maximal inhibitory concentration (IC50) was less than 100 nM.

These data come from patent US20260116868A1 (Arcus Biosciences, Inc., priority 2023, published 2026).
